The values below come from PMC6449294, “SNAPshots of the MCHR1: a Comparison Between the PET-Tracers [^18F]FE@SNAP and [^11C]SNAP-7941” (Molecular Imaging and Biology, 2018).

In series [1] the target is T1, MCHR1 (Rattus norvegicus, UniProt P97639).
T1 construct: from tissue; host or cells: living Sprague-Dawley rats (PET) and their organs after sacrifice
The experiment in a line: Small animal PET displacement study with (±)-SNAP-7941 (time-activity curves). The note with it: rats; for change of brown adipose tissue (BAT) TAC after administration of (±)-SNAP-7941 / change of lung TAC after displacement: 15 mg/kg (±)-SNAP-7941; for displacement in whole brain (TAC): 15 mg/kg (±)-SNAP-7941 i.v. 15 or 20 min after tracer. It counts as in vivo. The protocol:
(§1) Ten-week-old male rats (412 ± 58 g, Sprague-Dawley, HIM:OFA, n = 30) and 12-week-old male mice (24 ± 6 g, BALB/cAnNRj, n = 7) were purchased from the Division of Laboratory Animal Science and Genetics, Himberg, Austria. Animals were kept under conventional housing conditions (22 ± 1 °C; 40–70 % humidity) with food and water supply ad libitum and 12-h day/night cycle. All animals were treated according to the European Union rules on animal care and respective animal experiments were approved by the Austrian Ministry of Sciences, Research and Economy (BMWFW-66.009/0029-WF/V/3b/20159). For in vivo imaging, animals were anesthetized using 1.5–2 % isoflurane mixed with oxygen (1.5–2 l/min) to avoid movement during the examination. Anesthesia as well as vital parameters were monitored during the time interval of PET acquisition. Radioligands and non-labeled compounds were administered intravenously via the lateral tail vein.
Anesthetized rats and mice were immobilized in a multimodal animal carrier unit (MACU; medres®—medical research GmbH, Cologne, Germany). The body temperature was preserved at 37 °C throughout the whole experiment. Rats received either [^11C]SNAP-7941 or [^18F]FE@SNAP, followed by an injection of (±)-SNAP-7941 (15-mg/kg body weight; displacement study; n = 4 for each radiotracer) or the respective solvent serving as the vehicle (baseline condition; n = 4 for each radiotracer). The MCHR1 antagonist, (±)-SNAP-7941, and the vehicle were administered either 15 ([^11C]SNAP-7941) or 20 min ([^18F]FE@SNAP) after the radiotracer application via the lateral tail vein. To investigate a potential binding to the P-glycoprotein (P-gp) and/or breast cancer resistance protein (BCRP) brain efflux transporter system, rats as well as mice were pretreated either with the P-gp/BCRP inhibitor TQD (15 mg/kg body weight; P-gp/BCRP inhibition group; rats: n = 4 for each radiotracer; mice: n = 4 for [^18F]FE@SNAP) or the respective solvent (baseline condition; rats: n = 3 for each radiotracer; mice: n = 3 for [^18F]FE@SNAP)). Mice received the P-gp/BCRP inhibitor 30 min and rats 60 min before the radiotracer application. Experiments were initiated with a 7-min cone beam attenuation CT (CBCT) of the brain (full rotation, 360 projections; binning 4 × 4; 80 kV; 500 μA; 200-ms exposure time) using a small animal cone beam computed tomography (CBCT) scanner (Siemens Inveon microSPECT/CT, Siemens Medical Solutions, Knoxville, USA). Subsequently, the animals were positioned in the Siemens Inveon microPET scanner (Siemens Medical Solution, Knoxville, USA). The radiotracers were injected intravenously, and dynamic PET imaging was performed for 45 min (rats) in case of [^11C]SNAP-7941 (77.46 ± 5.41 MBq; molar activity 76.66 ± 23.58 GBq/μmol; radiochemical purity > 99 %) and 30 min (mice)—60 min (rats) for [^18F]FE@SNAP (47.08 ± 6.24 MBq; molar activity 22.18 ± 9.72 GBq/μmol; radiochemical purity > 90 %).
Image reconstruction of the CT raw data was performed with a Feldkamp algorithm using a ramp filter followed by standard rat beam-hardening correction and noise reduction (matrix size 1024 × 1024; effective pixel size: 97.56 μm). All CT image data was calibrated to Hounsfield units (HU). PET list mode data were sorted into three-dimensional sinograms according to the following frame sequences, [^11C]SNAP-7941: 1 × 3 s, 3 × 2 s, 1 × 6 s, 1 × 15 s, 1 × 35 s, 1 × 145 s, 1 × 270 s, 1 × 285 s, 1 × 165 s, 3 × 30 s, 1 × 120 s, 1 × 240 s, 1 × 420 s, 1 × 900 s and for [^18F]FE@SNAP: 1 × 2 s, 1 × 3 s, 1 × 5 s, 3 × 10 s, 1 × 20 s, 1 × 60 s, 1 × 120 s, 4 × 240 s, 4 × 600 s. PET image reconstruction were performed using an OSEM 3D/OP-MAP with scatter correction and a ramp filter (matrix size 128 × 128). Image data were normalized and corrected for random events, dead time, and radioactive decay. A calibration factor was applied to convert the activity information into absolute concentration units. […]

Details of series [2]: method as in PMID 23829932, PMID 24106662, PMID 27033361. To be noted: result in words, not determined in this paper for this tracer; cited from earlier work.
In series [3] the test system is P-gp/BCRP. The experiment in a line: Small animal PET of mouse brain, vehicle vs pretreatment with P-gp/BCRP inhibitor TQD. The note with it: mice, TQD 15 mg/kg 30 min before radiotracer. It counts as in vivo. The protocol: as §1
Anesthetized rats and mice were immobilized in a multimodal animal carrier unit (MACU; medres®—medical research GmbH, Cologne, Germany). The body temperature was preserved at 37 °C throughout the whole experiment. […]

A short description of series [4]: Ex vivo metabolites in rat brain (radio-HPLC). The protocol:
For the analysis of potential radiometabolites, blood samples (50–80 μl) from rats were withdrawn at 10 and 45 min for [^11C]SNAP-7941 and at 10, 30, and 60 min for [^18F]FE@SNAP and immediately subjected to the equivalent amount of acetonitrile, homogenized, and stored on ice before processing. Additionally, [^18F]FE@SNAP was administered to three rats, which were sacrificed after 45 min. Whole brains were harvested and homogenized with equivalent amounts (500–800 μl) of acetonitrile and 0.9 % saline solution using an ULTRA-TURRAX® (T25 basic, IKA Laboratory Equipment, Staufen, Germany). Subsequently, blood and brain were centrifuged (23,000 ×g, 4 min, 4 °C; Hettich Universal 30RF, Tuttlingen, Germany), and the obtained supernatant was analyzed by an analytical HPLC equipped with a radioactivity detector (radio-HPLC) (stationary phase: Chromolith® Performance RP-18e, 100–4.6 mm; precolumn: Chromolith® Guard Cartridge RP-18e, 5–4.6 mm; Merck, Darmstadt, Germany), mobile phase: (water/acetic acid 97.5/2.5 v/v; 2.5 g/l ammonium acetate; pH 3.5)/acetonitrile 70/30 v/v; flow: 1 ml/min, λ = 254 nm). The ratio between metabolite and intact radiotracer was calculated using quantitative HPLC analysis.

Molecules are shown by their SMILES. Read-outs that look alike come from different tables or passages of the source.

T1 sequence (P97639 whole entry): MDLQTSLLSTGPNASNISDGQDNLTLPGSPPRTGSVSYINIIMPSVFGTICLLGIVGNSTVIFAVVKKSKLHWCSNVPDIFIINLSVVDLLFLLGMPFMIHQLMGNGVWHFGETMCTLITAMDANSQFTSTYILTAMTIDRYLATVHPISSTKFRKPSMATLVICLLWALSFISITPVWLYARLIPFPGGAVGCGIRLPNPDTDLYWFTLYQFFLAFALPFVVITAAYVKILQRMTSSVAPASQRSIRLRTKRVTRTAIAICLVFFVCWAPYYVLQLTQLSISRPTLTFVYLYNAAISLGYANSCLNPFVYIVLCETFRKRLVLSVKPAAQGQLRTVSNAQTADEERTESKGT

Consider `COCC1=C(C(=O)O[11CH3])C(c2ccc(F)c(F)c2)N(C(=O)NCCCN2CCC(c3cccc(NC(C)=O)c3)CC2)C(=O)N1` (stereo not shown) [[^11C]SNAP-7941], for which, in series [1], the “change of brown adipose tissue (BAT) TAC after administration of (±)-SNAP-7941” value is on record as “increased uptake”, the “change of lung TAC after displacement” value is reported as “drop in the TAC” and the “displacement in whole brain (TAC)” value is “clear displacement”. In addition, the “Metabolism in rat brain” value in series [2] is “Stable”.
For `COCC1=C(C(=O)OCC[18F])C(c2ccc(F)c(F)c2)N(C(=O)NCCCN2CCC(c3cccc(NC(C)=O)c3)CC2)C(=O)N1` (stereo not shown) [[^18F]FE@SNAP], the “increase of brain uptake in TQD blocking group vs vehicle” value in series [3] was determined as 1.93 fold. In series [1], the “change of brown adipose tissue (BAT) TAC after administration of (±)-SNAP-7941” value is reported as “increased uptake”, the “change of lung TAC after displacement” value was “drop in the TAC” and the “displacement in whole brain (TAC)” value is recorded as “displacement could not be detected”. Moreover, the “intact tracer in rat brain” value in series [4] (45 min) came out at 22.37 ± 5.8%. Also, the “Metabolism in rat brain” value in series [4] (ex vivo, result in words) is reported as “Rapidly metabolized”.
